In patent US7112581B2, “Macrocyclic lactams” (Nereus Pharmaceuticals, Inc., priority 2002, dated 2006):
Values joined by “and” are separate entries in the source; they are usually repeats but may differ in a detail not shown here. Identical values can stand only once. Like-named read-outs stand apart in the source and are kept apart here.

Assays:
[1] = tested on: HT-29 (ATCC HTB-38) human colorectal adenocarcinoma; assay: tumor cytotoxicity assay (resazurin), HT-29; assay type: cell-based; conditions: HT-29, 48 h
Description: HT-29 (ATCC HTB-38) a human colorectal adenocarcinoma was maintained in McCoy's complete medium (McCoy's 5A medium with L-glutamine and 25 mM HEPES supplemented with 10% FBS, 1 mM Na pyruvate, 1X NEAA, 2 mM L-glutamine, and Pen/Strep at 100 IU/ml and 100 μg/ml, respectively). Cell lines were cultured at 37° C., 5% CO2 in a 95% humidified incubator. For tumor cytotoxicity assays HT-29, PC-3, or B16-F10 cells were seeded at 5×10^3, 5×10^3 or 1.25×10^3 cells/well cells were seeded at 5,000 cells/well in 90 μl complete media into a Corning 3904 black-walled, clear-bottom tissue culture plate and the plate were incubated overnight to allow cells to establish and enter log phase growth. Jurkat cells were seeded on the day of compound addition at 2×10^4 cells/well in 90 μl complete media into a Corning 3904 black-walled, clear-bottom tissue culture plate. 20 mM stock solutions of the compound of Formula (I) were prepared in 100% DMSO and stored at −20° C. 10×concentrated serial dilutions of the compounds were prepared in appropriate culture medium for final concentrations ranging from 2×10–5 to 2×10–12. Ten μl volumes of the 10×serial dilutions were added to the test wells in triplicate and the plates returned to the incubator for 48 hours. The final concentration of DMSO was 0.25% in all samples. […] Because living cells metabolize Resazurin, the fluorescence of the reduction product of Resazurin was measured using a Fusion microplate fluorometer (Packard Bioscience) with λex=535 nm and λem=590 nm filters. The plates were removed and resazurin fluorescence was measured using 530 nm excitation and 590 nm emission filters in a Fusion fluorimeter (Packard Instruments). […] The data were analyzed using Prism software (GraphPad Software). The data were normalized to the average of the cells treated with media only (100% cell growth) and EC50 values were determined using a standard sigmoidal dose response curve fitting algorithm.

[2] = tested on: PC-3 (ATCC CRL-1435) human prostate adenocarcinoma; assay: tumor cytotoxicity assay (resazurin), PC-3; assay type: cell-based; conditions: 48 h, read-out: EC50 for the PC3 assay
[3] = tested on: Jurkat (ATCC TIB-152) human acute T cell leukemia; assay: tumor cytotoxicity assay (resazurin), Jurkat; assay type: cell-based
Description: (§1) Jurkat (ATCC TIB-152) a human acute T cell leukemia was maintained in RPMI complete medium (RPMI 1640 medium supplemented with 10% FBS, 2 mM L-glutamine, 10 mM HEPES, 1 mM Na pyruvate, 1X NEAA, and Pen/Strep at 100 IU/ml and 100 μg/ml, respectively). Cell lines were cultured at 37° C., 5% CO2 in a 95% humidified incubator. For tumor cytotoxicity assays HT-29, PC-3, or B16-F10 cells were seeded at 5×10^3, 5×10^3 or 1.25×10^3 cells/well cells were seeded at 5,000 cells/well in 90 μl complete media into a Corning 3904 black-walled, clear-bottom tissue culture plate and the plate were incubated overnight to allow cells to establish and enter log phase growth. […] Because living cells metabolize Resazurin, the fluorescence of the reduction product of Resazurin was measured using a Fusion microplate fluorometer (Packard Bioscience) with λex=535 nm and λem=590 nm filters. The plates were removed and resazurin fluorescence was measured using 530 nm excitation and 590 nm emission filters in a Fusion fluorimeter (Packard Instruments). […] The data were analyzed using Prism software (GraphPad Software). The data were normalized to the average of the cells treated with media only (100% cell growth) and EC50 values were determined using a standard sigmoidal dose response curve fitting algorithm.

[4] = tested on: B16-F10 (ATCC CRL-6475) mouse melanoma; assay: tumor cytotoxicity assay (resazurin), B16-F10; assay type: cell-based
Description: as §1, with “B16-F10” for “Jurkat”, “CRL-6475)” for “TIB-152)”, “mouse melanoma” for “human acute T cell leukemia”, “in” for “in RPMI”, “DMEM (DMEM” for “medium (RPMI 1640 medium”, “HEPES,” for “HEPES, 1 mM Na pyruvate, 1X NEAA,”

[5] = tested on: Escherichia coli ATCC 610100; assay: antimicrobial resazurin growth assay, E. coli; assay type: cell-based; conditions: ATCC610100, 37° C., 4 to 6 hours
Description: (§2) The biological characteristics of compound of Formula (I) were evaluated in Escherichia coli ATCC 610100, Pseudomonas aeruginosa ATCC 614000, Haemophilus influenzae A21515, Staphylococcus aureus, methicillin resistant (MRSA) ATCC 605000, Enterococcus faecalis ATCC 662000, Streptococcus pneumoniae ATCC 661100 and Candida glabrata ATCC 200918. All cultures were maintained in Brain Heart Infusion Medium (Oxoid), except C. glabrata, which was maintained in Potato Dextrose Broth (Difco).
(§3) For antimicrobial assays of E. coli, P. aeruginosa, H. influenzae, MRSA, E. faecalis and S. pneumoniae, the cells in Brain Heart Infusion Medium were added to 96 well plates at a volume of 176 μl/well. The compound to be tested was added to the wells (20 μl/well) together with 10 μl of 0.2 mg/ml resazurin (Sigma). The plates were incubated at 37° C. for 4 to 6 hours. The growth of the cultures was monitored by measuring the fluorescence of the plates using a fluorometer with λex=535 nm and λem=590 nm filters. Resazurin dye without cells was used to determine the background, which was subtracted from the data for all experimental wells. The data were analyzed using Prism software (GraphPad Software). The data were normalized to the average of the cells treated with media only (100% cell growth) and the IC50 values were determined using a standard sigmoidal dose response curve fitting algorithm.

[6] = tested on: Pseudomonas aeruginosa ATCC 614000; assay: antimicrobial resazurin growth assay, P. aeruginosa; assay type: cell-based; conditions: ATCC614000, 37° C., 4 to 6 hours
Description: as §2, §3

[7] = tested on: Haemophilus influenzae A21515; assay: antimicrobial resazurin growth assay, H. influenzae; assay type: cell-based; conditions: 37° C., 4 to 6 hours
Description: as §2, §3

[8] = tested on: Staphylococcus aureus, methicillin resistant (MRSA) ATCC 605000; assay: antimicrobial resazurin growth assay, MRSA; assay type: cell-based; conditions: 37° C., 4 to 6 hours
Description: as §2, §3

[9] = tested on: Enterococcus faecalis ATCC 662000; assay: antimicrobial resazurin growth assay, E. faecalis; assay type: cell-based; conditions: ATCC662000, 37° C., 4 to 6 hours
Description: as §2, §3

[10] = tested on: Streptococcus pneumoniae ATCC 661100; assay: antimicrobial resazurin growth assay, S. pneumoniae; assay type: cell-based; conditions: ATCC661100, 37° C., 4 to 6 hours
Description: as §2, §3

[11] = tested on: Candida glabrata ATCC 200918; assay: antimicrobial resazurin growth assay, C. glabrata; assay type: cell-based; conditions: Nakaseomyces glabratus, ATCC200918; Potato Dextrose medium
[12] = tested on: Staphylococcus aureus (MSSA); assay: susceptibility assay by broth microdilution (NCCLS), MSSA; assay type: cell-based; conditions: Staphyloccus aureus MSSA
Description: (§4) The anti-infective potential of the compound was re-evaluated in susceptibility assays performed by broth microdilution in accordance with National Committee for Clinical Laboratory Standards (NCCLS) guidelines, M7-A5, January 2000. The compound was tested versus the following microorganisms: Staphylococcus aureus (MSSA), Staphylococcus aureus (MRSA), Streptococcus pneumoniae, vancomycin-sensitive Enterococcus faecalis, Haemophilus influenzae, Pseudomonas aeruginosa and Candida albicans.

[13] = tested on: Staphylococcus aureus (MRSA); assay: susceptibility assay by broth microdilution (NCCLS), MRSA; assay type: cell-based; conditions: Staphyloccus aureus MRSA
Description: as §4

[14] = tested on: Streptococcus pneumoniae 49619; assay: susceptibility assay by broth microdilution (NCCLS), S. pneumoniae; assay type: cell-based
Description: as §4

[15] = tested on: vancomycin-sensitive Enterococcus faecalis; assay: susceptibility assay by broth microdilution (NCCLS), E. faecalis; assay type: cell-based; conditions: Enterococcus faecalis VSE
Description: as §4

[16] = tested on: Escherichia coli imp; assay: susceptibility assay by broth microdilution (NCCLS), E. coli; assay type: cell-based
[17] = tested on: Haemophilus influenzae 49766; assay: susceptibility assay by broth microdilution (NCCLS), H. influenzae; assay type: cell-based
Description: as §4

[18] = tested on: Pseudomonas aeruginosa 27853; assay: susceptibility assay by broth microdilution (NCCLS), P. aeruginosa; assay type: cell-based; conditions: Pseudomona aeruginosa 27853
Description: as §4

[19] = tested on: Candida albicans 90028; assay: susceptibility assay by broth microdilution (NCCLS), C. albicans; assay type: cell-based
Description: as §4

[20] = solubility (observation); assay type: physicochemical

CCC/C=C/CC1C/C=C/C=C(C)/C=C/C=C\C(O)CC(O)C(O)/C=C/C=C/C=C/C(=O)N1 (stereo not drawn) [compound of Formula (I)]
EC50 ([1]; compound alone, read-out: EC50 in the HT-29 assay): 0.922 µg/mL and 2.03 µM
EC50 ([1]; compound with interferon, read-out: EC50 in the HT-29 assay): 0.263 µg/mL and 580 nM
EC50 ([1]; further evaluation (Table 2), read-out: HT-29 EC50): 3620 ± 2570 nM
EC50 ([2]; compound alone): 1.29 µg/mL and 2.84 µM
EC50 ([2]; compound with TNF-α): 0.988 µg/mL and 2.18 µM
EC50 ([3]; further evaluation (Table 2), 48 hours, read-out: Jurkat EC50): 2330 ± 1110 nM
EC50 ([3]; one set of evaluations, unit inferred, read-out: EC50 for the Jurkat cells): 2330 ± 1110 nM
EC50 ([4]; further evaluation (Table 2), 48 hours, read-out: B16-F10 EC50): 2160 ± 870 nM
EC50 ([4]; one set of evaluations, unit inferred, read-out: EC50 for the B16-F10 cells): 2160 ± 870 nM
IC50 [5]: > 4 µg/mL
IC50 [6]: > 4 µg/mL
IC50 [7]: > 4 µg/mL
IC50 [8]: 1 µg/mL and 2.2 µM
IC50 [9]: 3 µg/mL and 6.6 µM
IC50 [10]: 4 µg/mL and 8.8 µM
IC50 [11]: 3 µg/mL and 6.6 µM
MLC [12]: >32 µg/mL
MIC ([12]; Staphylococcus aureus): > 32 µg/mL
MLC [13]: >32 µg/mL
MIC ([13]; Staphylococcus aureus): 12 µg/mL
MIC [14]: 32 µg/mL
MLC [14]: >32 µg/mL
MIC [15]: 32 µg/mL
MLC [15]: >32 µg/mL
MIC ([16]; Escherichia coli): > 32 µg/mL
MLC ([16]; Escherichia coli imp): >32 µg/mL
MIC [17]: > 32 µg/mL
MLC [17]: >32 µg/mL
MLC [18]: >32 µg/mL
MIC ([18]; Pseudomonas aeruginosa): > 32 µg/mL
MIC [19]: > 32 µg/mL
MLC [19]: >32 µg/mL
solubility [20]: substantially insoluble
